Test results: publication PMC8895463 (Journal of Agricultural and Food Chemistry, 2022)

Molecular target: T1, CYP3A4 (Homo sapiens, UniProt P08684)
T1 construct: recombinant; E. coli microsomes; with NADPH cytochrome P450 reductase (POR, P16435), coexpressed
Test: fluorogenic Vivid BOMR substrate assay with recombinant CYP3A4/POR E. coli microsomes
Format: biochemical

T1 sequence (P08684 13-503 S18F): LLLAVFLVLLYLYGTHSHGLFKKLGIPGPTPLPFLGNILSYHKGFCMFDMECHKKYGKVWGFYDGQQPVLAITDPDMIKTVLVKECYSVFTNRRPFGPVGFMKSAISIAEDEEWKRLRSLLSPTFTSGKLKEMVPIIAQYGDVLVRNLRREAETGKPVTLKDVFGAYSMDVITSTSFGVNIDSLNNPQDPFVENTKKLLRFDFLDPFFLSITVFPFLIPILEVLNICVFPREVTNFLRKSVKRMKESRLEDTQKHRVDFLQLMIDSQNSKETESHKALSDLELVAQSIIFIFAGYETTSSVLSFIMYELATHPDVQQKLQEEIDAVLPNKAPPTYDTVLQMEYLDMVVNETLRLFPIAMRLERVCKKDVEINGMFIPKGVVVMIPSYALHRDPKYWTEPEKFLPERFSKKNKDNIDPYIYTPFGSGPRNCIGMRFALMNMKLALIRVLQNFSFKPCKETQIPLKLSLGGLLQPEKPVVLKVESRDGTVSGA
T1 sequence (P16435 2-677, further chain): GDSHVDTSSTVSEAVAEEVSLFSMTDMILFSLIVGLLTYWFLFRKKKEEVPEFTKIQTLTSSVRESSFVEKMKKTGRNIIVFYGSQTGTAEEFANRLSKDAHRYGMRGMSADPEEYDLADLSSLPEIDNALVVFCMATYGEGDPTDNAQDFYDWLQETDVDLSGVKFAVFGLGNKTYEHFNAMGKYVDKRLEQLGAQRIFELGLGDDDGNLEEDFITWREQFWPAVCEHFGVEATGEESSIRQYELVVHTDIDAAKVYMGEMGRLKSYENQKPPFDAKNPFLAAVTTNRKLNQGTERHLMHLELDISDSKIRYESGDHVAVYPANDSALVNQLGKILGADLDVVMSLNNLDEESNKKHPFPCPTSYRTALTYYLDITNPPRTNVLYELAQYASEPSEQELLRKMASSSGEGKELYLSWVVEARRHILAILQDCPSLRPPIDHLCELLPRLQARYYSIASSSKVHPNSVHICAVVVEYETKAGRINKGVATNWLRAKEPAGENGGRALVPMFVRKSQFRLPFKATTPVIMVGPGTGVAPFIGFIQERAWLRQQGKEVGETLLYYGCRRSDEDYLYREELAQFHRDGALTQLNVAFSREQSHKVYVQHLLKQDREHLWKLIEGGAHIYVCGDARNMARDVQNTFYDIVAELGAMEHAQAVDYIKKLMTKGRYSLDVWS

COc1ccc(-c2cc(=O)c3c(O)cc(O)cc3o2)cc1-c1c(O)cc(O)c2c(=O)cc(-c3ccc(O)cc3)oc12 [bilobetin]
IC50: 12.9 µM
